From patent publication US20150159192A1, “STERILIZATION INDICATORS INCLUDING A NEUTRALIZER AND METHODS” (3M INNOVATIVE PROPERTIES COMPANY, priority 2010, published 2015)
Read-outs that look alike come from different tables or passages of the source.

B1: Catalase (protein, UniProt P00432 2-527, looked up)
Catalase: ADNRDPASDQMKHWKEQRAAQKPDVLTTGGGNPVGDKLNSLTVGPRGPLLVQDVVFTDEMAHFDRERIPERVVHAKGAGAFGYFEVTHDITRYSKAKVFEHIGKRTPIAVRFSTVAGESGSADTVRDPRGFAVKFYTEDGNWDLVGNNTPIFFIRDALLFPSFIHSQKRNPQTHLKDPDMVWDFWSLRPESLHQVSFLFSDRGIPDGHRHMNGYGSHTFKLVNANGEAVYCKFHYKTDQGIKNLSVEDAARLAHEDPDYGLRDLFNAIATGNYPSWTLYIQVMTFSEAEIFPFNPFDLTKVWPHGDYPLIPVGKLVLNRNPVNYFAEVEQLAFDPSNMPPGIEPSPDKMLQGRLFAYPDTHRHRLGPNYLQIPVNCPYRARVANYQRDGPMCMMDNQGGAPNYYPNSFSAPEHQPSALEHRTHFSGDVQRFNSANDDNVTQVRTFYLKVLNEEQRKRLCENIAGHLKDAQLFIQKKAVKNFSDVHPEYGSRIQALLDKYNEEKPKNAVHTYVQHGSHLSAREKANL
notes: enzyme neutralizer from Sigma-Aldrich, 226 units added per vial

Legend:
[1] = system: Geobacillus stearothermophilus spores; test: Hydrogen peroxide neutralizers in BI recovery medium, spore outgrowth after STERRAD 100S cycle; assay type: cell-based; design: key to Negative Control / Positive Control: Pos*/Neg*—positive (yellow) or negative (purple) was discolored by the additive; Pos*/Neg*—positive (yellow) or negative (purple) was discolored by the additive; Neg^3—positive control did not grow
Experimental: This example compares the neutralization effectiveness of different additives in the biological indicators recovery medium. The additives (neutralizers) were added to the recovery media used in the 3M ATTEST 1292 Rapid Readout Biological Indicators. Catalase, L-cysteine, sodium thiosulfate, D-ethionine, S-methyl-cysteine, S-benzyl-L-cysteine, thiodiproprionic acid, potassium ferricyanide and sodium pyruvate were all purchased from Sigma-Aldrich Corporation, St. Louis, Mo. Isoascorbic acid was purchased from Alfa Aesar, Ward Hill, Mass. Methionine was purchased from Calbiochem, EMD Chemicals, Gibbstown, N.J.
3M ATTEST 1292 Biological Indicators were steam sterilized to kill the existing spore population. Two sets of 3M ATTEST 1292 BIs were evaluated, one set contained the paper spore carrier used in the commercially available indicator. In the second set, the spore carrier was replaced with fiberglass strips, commercially available as […] 230-11.0 (Crane &Co., Inc., Dalton, Mass.). The steam sterilized BIs were then exposed in a STERRAD 100S hydrogen peroxide/plasma sterilization cycle. Immediately following the hydrogen peroxide/plasma sterilization, the BIs containing media with and without additives were inoculated with less than 100 Geobacillus stearothermophilus spores recovered from a 3M ATTEST 1292 BI spore strip. The indicators were incubated at 60° C. (+/−2° C.) for 7 days and observed for growth, indicated by a color change from purple to yellow. A positive and negative control was tested for each additive. The positive controls were steam sterilized and inoculated with less than 100 spores. The negative controls were steam sterilized.

[2] = system: Geobacillus stearothermophilus spores; test: Remediation of residual hydrogen peroxide, spore recovery method with sodium thiosulfate; assay type: cell-based
[3] = additive 1 g/l, CRANEGLAS fiberglass carrier, 7 days
[4] = additive 1 g/l, paper spore carrier, 7 days
[5] = additive 1 g/l, steam sterilized and inoculated with less than 100 spores, no H2O2
[6] = additive 1 g/l, steam sterilized, not inoculated
[7] = additive 2 g/l, CRANEGLAS fiberglass carrier, 7 days
[8] = additive 2 g/l, paper spore carrier, 7 days
[9] = additive 2 g/l, steam sterilized and inoculated with less than 100 spores, no H2O2
[10] = additive 2 g/l, steam sterilized, not inoculated
[11] = additive 4 g/l, CRANEGLAS fiberglass carrier, 7 days
[12] = additive 4 g/l, paper spore carrier, 7 days
[13] = additive 4 g/l, steam sterilized and inoculated with less than 100 spores, no H2O2
[14] = additive 4 g/l, steam sterilized, not inoculated
[15] = additive 8 g/l, CRANEGLAS fiberglass carrier, 7 days
[16] = additive 8 g/l, paper spore carrier, 7 days
[17] = additive 8 g/l, steam sterilized and inoculated with less than 100 spores, no H2O2
[18] = additive 8 g/l, steam sterilized, not inoculated

Row | Molecule | No. Pos. CRANEGLAS [1, 3] | No. Pos. Paper [1, 4] | Positive Control [1, 5] | Negative Control [1, 6] | No. Pos. CRANEGLAS [1, 7] | No. Pos. Paper [1, 8] | Positive Control [1, 9] | Negative Control [1, 10] | No. Pos. CRANEGLAS [1, 11] | No. Pos. Paper [1, 12] | Positive Control [1, 13] | Negative Control [1, 14] | No. Pos. CRANEGLAS [1, 15] | No. Pos. Paper [1, 16] | Positive Control [1, 17] | Negative Control [1, 18] | further results
1 | CCSCC[C@@H](N)C(=O)O [D-ethionine] | 4 | 2 | Pos | Neg | 4 | 0 | Pos | Neg | 4 | 2 | Pos | Neg | 4 | 3 | Pos | Neg | 
2 | O=C1O[C@H]([C@H](O)CO)C(O)=C1O [Isoascorbic acid] | 0 | 3 | Pos | Neg | 4 | 3 | Pos | Neg* | 4 | 3 | Pos* | Neg* | 4 | 3 | Pos* | Neg* | Additive level that effectively neutralized the paper carriers ([1]; paper carriers): 1 gram per liter
3 | N[C@@H](CS)C(=O)O [L-cysteine] | 4 | 1 | Pos | Neg | 4 | 0 | Pos | Neg | 4 | 3 | Pos | Neg | 4 | 3 | Pos | Neg | 
4 | CSCC[C@H](N)C(=O)O [Methionine] | 4 | 0 | Pos | Neg | 4 | 0 | Pos | Neg | 4 | 3 | Pos | Neg | 4 | 3 | Pos | Neg | 
5 | N[C@@H](CSCc1ccccc1)C(=O)O [S-benzyl-L-cysteine] | 4 | 0 | Pos | Neg | 4 | 0 | Pos | Neg | 4 | 0 | Pos | Neg |  |  |  |  | 
6 | CSC[C@H](N)C(=O)O [S-methyl-cysteine] | 4 | 0 | Pos | Neg | 4 | 0 | Pos | Neg | 4 | 2 | Pos | Neg | 4 | 3 | Pos* | Neg | 
7 | CC(=O)C(=O)[O-].[Na+] [Sodium pyruvate, sodium pyruvate] |  | 0 | Pos | Neg |  | 2 | Pos | Neg |  | 3 | Pos | Neg |  | 3 | Pos | Neg | 
8 | O=S([O-])([O-])=S.[Na+].[Na+] [Sodium thiosulfate, sodium thiosulfate] |  |  |  |  |  |  |  |  |  |  |  |  |  |  |  |  | Spore recovery ability (in words) [2]: good spore recovery agent; Additive level that effectively neutralized the paper carriers [1]: 1 gram per liter; Negative Control [1]: Neg and Neg*; No. Pos. CRANEGLAS [1]: 4; No. Pos. Paper [1]: 3; Positive Control [1]: Pos
9 | O=C(O)CCSCCC(=O)O [Thiodiproprionic acid, thiodiproprionic acid] | 1 | 0 | Pos | Neg | 3 | 0 | Neg^3 | Neg | 3 | 0 | Neg^3 | Neg | 3 | 3 | Pos | Neg | 
10 | B1 |  |  |  |  |  |  |  |  |  |  |  |  |  |  |  |  | Neutralization of residual hydrogen peroxide (in words) [1]: sufficiently neutralized; No. Pos. CRANEGLAS ([1]; 226 units added per vial, CRANEGLAS fiberglass carrier, 7 days): 4; No. Pos. Paper ([1]; 226 units added per vial, paper spore carrier, 7 days): 3; Positive Control ([1]; 226 units added per vial, steam sterilized and inoculated): Pos; Negative Control ([1]; 226 units added per vial, steam sterilized, not inoculated): Neg
